The text below walks through data of patent publication US20240309005A1 (priority 2021, published 2024).

The nature of this data set: physchem. The conditions noted are these: 25 °C, kinetic from dmso stock.

≈ marks a conversion by molar mass, not a printed value.

As for `Cc1n[nH]c2nc(-c3ccc(NS(=O)(=O)c4ccc(CN)cc4)cc3)nc(OC3CCN(C(C)C)CC3)c12` [Compound 4, 4-(aminomethyl)-N-(4-(4-((1-isopropylpiperidin-4-yl)oxy)-3-methyl-1H-pyrazolo[3,4-d]pyrimidin-6-yl)phenyl)benzenesulfonamide], the solubility at 2 h is, setting by setting: (pH 5, fessif) 17.6 µM (≈ 9.43 µg/mL); (pH 7.4, aqueous buffer) 293 µM (≈ 157 µg/mL).
The corresponding values for `Cc1n[nH]c2nc(-c3ccc(NS(=O)(=O)c4cc(Cl)ccc4F)cc3)nc(O[C@@H]3CN(C)C[C@@H]3F)c12` [Compound 58, 5-chloro-2-fluoro-N-[4-(4-{[(3R,4S)-4-fluoro-1-methylpyrrolidin-3-yl]oxy}-3-methyl-1H-pyrazolo[3,4-d]pyrimidin-6-yl)phenyl]benzenesulfonamide] are 262 µM (≈ 140 µg/mL) and 0.92 µM (≈ 0.492 µg/mL).
The corresponding values for `Cc1n[nH]c2nc(-c3ccc(NS(=O)(=O)c4cc(Cl)ccc4F)cc3)nc(O[C@H]3CCNC3)c12` [Compound 48, 5-chloro-2-fluoro-N-(4-{3-methyl-4-[(3S)-pyrrolidin-3-yloxy]-1H-pyrazolo[3,4-d]pyrimidin-6-yl}phenyl)benzenesulfonamide] are 178 µM (≈ 89.5 µg/mL) and 63.6 µM (≈ 32 µg/mL).
The like results for `Cc1n[nH]c2nc(-c3ccc(NS(=O)(=O)c4cc(Cl)ccc4F)cc3)nc(N(C)CCN(C)C)c12` [Compound 154, 5-chloro-N-(4-(4-((2-(dimethylamino)ethyl)(methyl)amino)-3-methyl-1H-pyrazolo[3,4-d]pyrimidin-6-yl)phenyl)-2-fluorobenzenesulfonamide] were, in that order, 136 µM (≈ 70.5 µg/mL) and 1.61 µM (≈ 0.834 µg/mL).
On to `Cc1n[nH]c2nc(-c3ccc(NS(=O)(=O)c4cccnc4)cc3)nc(NCCN(C)CCO)c12` [Compound 21, N-[4-[4-([2-[(2-hydroxyethyl)(methyl)amino]ethyl]amino)-3-methyl-1H-pyrazolo[3,4-d]pyrimidin-6-yl]phenyl]pyridine-3-sulfonamide], for which the solubility at 2 h is, setting by setting: (pH 5, fessif) 302 µM (≈ 146 µg/mL); (pH 7.4, aqueous buffer) 2.26 µM (≈ 1.09 µg/mL).
The corresponding values for `Cc1n[nH]c2nc(-c3ccc(NS(=O)(=O)c4cc(Cl)ccc4F)cc3)nc(NCCN(C)C)c12` [Compound 9, 5-chloro-N-(4-(4-((2-(dimethylamino)ethyl)amino)-3-methyl-1H-pyrazolo[3,4-d]pyrimidin-6-yl)phenyl)-2-fluorobenzenesulfonamide] are 289 µM (≈ 146 µg/mL) and 8.5 µM (≈ 4.28 µg/mL).
The like results for `Cc1n[nH]c2nc(-c3ccc(NS(=O)(=O)c4cc(Cl)ccc4F)cc3)nc(OCCN(C)C)c12` [Compound 8, 5-chloro-N-(4-(4-(2-(dimethylamino)ethoxy)-3-methyl-1H-pyrazolo[3,4-d]pyrimidin-6-yl)phenyl)-2-fluorobenzenesulfonamide] were, in that order, 91 µM (≈ 46 µg/mL) and 0.23 µM (≈ 0.116 µg/mL).
As to `COc1ccnc(S(=O)(=O)Nc2ccc(-c3nc(O[C@@H]4CCN(C)C[C@@H]4F)c4c(C)n[nH]c4n3)cc2)c1` [Compound 62, N-[4-(4-{[(3S,4R)-3-fluoro-1-methylpiperidin-4-yl]oxy}-3-methyl-1H-pyrazolo[3,4-d]pyrimidin-6-yl)phenyl]-4-methoxypyridine-2-sulfonamide], the solubility at 2 h was found to be 16.2 µM (≈ 8.55 µg/mL) (pH 5, fessif) and 0.36 µM (≈ 0.19 µg/mL) (pH 7.4, aqueous buffer).
Take `Cc1n[nH]c2nc(-c3ccc(NS(=O)(=O)N4CCCCC4)cc3)nc(OC3CCN(C(C)C)CC3)c12` [Compound 6, N-(4-(4-((1-isopropylpiperidin-4-yl)oxy)-3-methyl-1H-pyrazolo[3,4-d]pyrimidin-6-yl)phenyl)piperidine-1-sulfonamide]: the solubility at 2 h by setting is: (pH 5, fessif) 258 µM (≈ 133 µg/mL); (pH 7.4, aqueous buffer) 299 µM (≈ 154 µg/mL).
For the molecule `Cc1n[nH]c2nc(-c3ccc(NS(=O)(=O)c4ccc(C#N)cc4)cc3)nc(OC3CCN(C(C)C)CC3)c12` [Compound 3, 4-cyano-N-(4-(4-((1-isopropylpiperidin-4-yl)oxy)-3-methyl-1H-pyrazolo[3,4-d]pyrimidin-6-yl)phenyl)benzenesulfonamide], the solubility at 2 h by setting is: (pH 5, fessif) 325 µM (≈ 173 µg/mL); (pH 7.4, aqueous buffer) 19 µM (≈ 10.1 µg/mL).
The corresponding values for `Cc1n[nH]c2nc(-c3ccc(NS(=O)(=O)c4cc(F)ccc4F)cc3)nc(NCCN3CCCC3)c12` [Compound 33, 2,5-difluoro-N-(4-(3-methyl-4-((2-(pyrrolidin-1-yl)ethyl)amino)-1H-pyrazolo[3,4-d]pyrimidin-6-yl)phenyl)benzenesulfonamide] are 298 µM (≈ 153 µg/mL) and 3.8 µM (≈ 1.95 µg/mL).
The like results for `Cc1n[nH]c2nc(-c3ccc(NS(=O)(=O)c4cc(Cl)ccc4F)cc3)nc(NCc3ccncc3)c12` [Compound 13, 5-chloro-2-fluoro-N-(4-(3-methyl-4-((pyridin-4-ylmethyl)amino)-1H-pyrazolo[3,4-d]pyrimidin-6-yl)phenyl)benzenesulfonamide] were, in that order, 5.81 µM (≈ 3.04 µg/mL) and under 0.12 µM.
The like results for `Cc1n[nH]c2nc(-c3ccc(NS(=O)(=O)C(C)C)cc3)nc(OC3CCN(C(C)C)CC3)c12` [Compound 5, N-(4-(4-((1-isopropylpiperidin-4-yl)oxy)-3-methyl-1H-pyrazolo[3,4-d]pyrimidin-6-yl)phenyl)propane-2-sulfonamide] were, in that order, 315 µM (≈ 149 µg/mL) and 40 µM (≈ 18.9 µg/mL).
Consider `Cc1n[nH]c2nc(-c3ccc(NS(=O)(=O)c4cc(Cl)ccc4F)cc3)nc(O[C@@H]3CCNC[C@H]3F)c12` [Compound 53, 5-chloro-2-fluoro-N-[4-(4-{[(3R,4R)-3-fluoropiperidin-4-yl]oxy}-3-methyl-1H-pyrazolo[3,4-d]pyrimidin-6-yl)phenyl]benzenesulfonamide], for which the solubility at 2 h stood at 283 µM (≈ 151 µg/mL) (pH 5, fessif) and 11.3 µM (≈ 6.05 µg/mL) (pH 7.4, aqueous buffer).
The like results for `C=CS(=O)(=O)Nc1ccc(-c2nc(OC3CCN(C(C)C)CC3)c3c(C)n[nH]c3n2)cc1` [Compound 1, N-(4-(4-((1-isopropylpiperidin-4-yl)oxy)-3-methyl-1H-pyrazolo[3,4-d]pyrimidin-6-yl)phenyl)ethenesulfonamide] were, in that order, 279 µM (≈ 127 µg/mL) and 290 µM (≈ 132 µg/mL).
The like results for `Cc1n[nH]c2nc(-c3ccc(NS(=O)(=O)c4cc(Cl)ccc4F)cc3)nc(O[C@H]3CCNC[C@@H]3F)c12` [Compound 47, 5-chloro-2-fluoro-N-(4-(4-(((3S,4S)-3-fluoropiperidin-4-yl)oxy)-3-methyl-1H-pyrazolo[3,4-d]pyrimidin-6-yl)phenyl)benzenesulfonamide] were, in that order, 211 µM (≈ 113 µg/mL) and 16.8 µM (≈ 8.99 µg/mL).
The corresponding values for `Cc1n[nH]c2nc(-c3ccc(NS(=O)(=O)c4cc(Cl)ccc4F)cc3)nc(O[C@@H]3CNCC3(F)F)c12` [Compound 49, 5-chloro-N-(4-{4-[(4,4-difluoropyrrolidin-3-yl)oxy]-3-methyl-1H-pyrazolo[3,4-d]pyrimidin-6-yl}phenyl)-2-fluorobenzenesulfonamide] are 265 µM (≈ 143 µg/mL) and 0.27 µM (≈ 0.146 µg/mL).
For `Cc1n[nH]c2nc(-c3ccc(NS(=O)(=O)c4cc(Cl)ccc4F)cc3)nc(NC3CN(C(C)C)C3)c12` [Compound 25, 5-chloro-2-fluoro-N-(4-(4-((1-isopropylazetidin-3-yl)amino)-3-methyl-1H-pyrazolo[3,4-d]pyrimidin-6-yl)phenyl)benzenesulfonamide], the solubility at 2 h was found to be 301 µM (≈ 160 µg/mL) (pH 5, fessif) and 15.6 µM (≈ 8.27 µg/mL) (pH 7.4, aqueous buffer).
In the case of `CCN1C[C@H](F)[C@H](Oc2nc(-c3ccc(NS(=O)(=O)c4cc(Cl)ccc4F)cc3)nc3[nH]nc(C)c23)C1` [Compound 56, 5-chloro-N-[4-(4-{[(3R,4S)-1-ethyl-4-fluoropyrrolidin-3-yl]oxy}-3-methyl-1H-pyrazolo[3,4-d]pyrimidin-6-yl)phenyl]-2-fluorobenzenesulfonamide], the solubility at 2 h is, setting by setting: (pH 5, fessif) 73.7 µM (≈ 40.5 µg/mL); (pH 7.4, aqueous buffer) 0.48 µM (≈ 0.264 µg/mL).
On to `Cc1n[nH]c2nc(-c3ccc(NS(=O)(=O)c4cc(Cl)ccc4F)cc3)nc(O[C@@H]3CCN(CC(F)F)C[C@@H]3F)c12` [Compound 64, 5-chloro-N-[4-(4-{[(3S,4R)-1-(2,2-difluoroethyl)-3-fluoropiperidin-4-yl]oxy}-3-methyl-1H-pyrazolo[3,4-d]pyrimidin-6-yl)phenyl]-2-fluorobenzenesulfonamide], for which the solubility at 2 h runs as follows: (pH 5, fessif) 6.43 µM (≈ 3.85 µg/mL); (pH 7.4, aqueous buffer) under 0.24 µM.
As for `Cc1n[nH]c2nc(-c3ccc(NS(=O)(=O)c4ccccn4)cc3)nc(NCCN(C)CCO)c12` [Compound 20], the solubility at 2 h by setting is: (pH 5, fessif) 277 µM (≈ 134 µg/mL); (pH 7.4, aqueous buffer) 82 µM (≈ 39.6 µg/mL).
With `Cc1n[nH]c2nc(-c3ccc(NS(=O)(=O)c4cc(Cl)ccc4F)cc3)nc(OC3CN(C(C)C)C3)c12` [Compound 17, 5-chloro-2-fluoro-N-(4-[4-[(1-isopropylazetidin-3-yl)oxy]-3-methyl-1H-pyrazolo[3,4-d]pyrimidin-6-yl]phenyl)benzenesulfonamide], the solubility at 2 h worked out at 202 µM (≈ 107 µg/mL) (pH 5, fessif) and 1.12 µM (≈ 0.595 µg/mL) (pH 7.4, aqueous buffer).
The corresponding values for `Cc1n[nH]c2nc(-c3ccc(NS(=O)(=O)c4ccccn4)cc3)nc(O[C@@H]3CCN(C)C[C@@H]3F)c12` [Compound 66, N-[4-(4-{[(3S,4R)-3-fluoro-1-methylpiperidin-4-yl]oxy}-3-methyl-1H-pyrazolo[3,4-d]pyrimidin-6-yl)phenyl]pyridine-2-sulfonamide] are 32.9 µM (≈ 16.4 µg/mL) and 1.51 µM (≈ 0.751 µg/mL).
`Cc1n[nH]c2nc(-c3cnc(NS(=O)(=O)c4cc(Cl)ccc4F)nc3)nc(OC3CCN(C(C)C)CC3)c12` [Compound 12, 5-chloro-2-fluoro-N-(5-(4-((1-isopropylpiperidin-4-yl)oxy)-3-methyl-1H-pyrazolo[3,4-d]pyrimidin-6-yl)pyrimidin-2-yl) benzenesulfonamide] returned a solubility at 2 h (pH 5, fessif) of 33 µM (≈ 18.5 µg/mL) and a solubility at 2 h (pH 7.4, aqueous buffer) of 2.5 µM (≈ 1.4 µg/mL).
The corresponding values for `Cc1n[nH]c2nc(-c3ccc(NS(=O)(=O)c4cc(Cl)ccc4F)cc3)nc(NCCN3CCOCC3)c12` [Compound 26, 5-chloro-2-fluoro-N-(4-(3-methyl-4-((2-morpholinoethyl)amino)-1H-pyrazolo[3,4-d]pyrimidin-6-yl)phenyl)benzenesulfonamide] are 285 µM (≈ 156 µg/mL) and 5.1 µM (≈ 2.78 µg/mL).

A word on the solubility: it is the dissolved amount per volume that the medium holds.
